Paper PMC6219668 (Oncotarget, 2018)
Read-outs that look alike come from different tables or passages of the source.

Columns and labels:
[1] = test system: CAMA-1; assay: cells; assay type: cell-based; settings: Homo sapiens; CAMA-1, ER+ BC, dominant CDK4; read-out: IC50, mean ± SD
[2] = test system: MCF-7; assay: cells; assay type: cell-based; settings: Homo sapiens, MCF7; MCF-7, ER+ BC, dominant CDK4; read-out: IC50, mean ± SD
[3] = Maximum tolerated dosage; assay type: in vivo; settings: mice, once daily
[4] = Pharmacokinetics in mice; assay type: in vivo; settings: 75 mg/kg once daily, data not shown
[5] = test system: HMEX1906; assay type: in vivo; settings: mouse, in vivo, 250 mg/kg
Procedure: Animals were housed in a temperature-
In all studies, tumor volume was calculated
For using the following formula: (length × width2)/2. Percent
Data are presented as the percent

[6] = test system: HBCx-14; assay type: in vivo; settings: HBCx-14, Breast, TNBC, Rb absent; 125 mg/kg bid × 21
[7] = test system: HBCx-2; assay type: in vivo; settings: HBCx-2, Breast, TNBC, Rb absent; 125 mg/kg bid × 21
[8] = test system: HBCx-6; assay type: in vivo; settings: HBCx-6, Breast, TNBC, Rb present; 125 mg/kg bid × 21
[9] = test system: HBCx-8; assay type: in vivo; settings: HBCx-8, Breast, TNBC, Rb present; 125 mg/kg bid × 21
[10] = test system: HBCx-11; assay type: in vivo; settings: HBCx-11, Breast, TNBC, Rb present; 125 mg/kg bid × 21
[11] = test system: Hs 944.T; assay type: in vivo; settings: Melanoma
[12] = test system: HPAX0991; assay type: in vivo; settings: HPAX0991, Pancreatic, Rb present; 250 mg/kg qd
[13] = test system: HPAX1317; assay type: in vivo; settings: HPAX1317, Pancreatic, Rb present; 250 mg/kg qd
[14] = test system: CHP-212; assay: cells; assay type: cell-based; settings: Homo sapiens, CHP-212, 72 h
[15] = test system: BT-483; assay: cells; assay type: cell-based; settings: Homo sapiens, BT-483, 72 h
[16] = test system: SNU-387; assay: cells; assay type: cell-based; settings: Homo sapiens, SNU-387, 72 h
[17] = test system: MGH051; assay: cells; assay type: cell-based; settings: MGH051, 72 h
[18] = test system: NCI-H1573; assay: cells; assay type: cell-based; settings: Homo sapiens, NCI-H1573, 72 h
[19] = test system: HCC-4006; assay: cells; assay type: cell-based; settings: Homo sapiens, HCC4006; HCC-4006, 72 h
[20] = test system: NCI-H441; assay: cells; assay type: cell-based; settings: Homo sapiens, NCI-H441, 72 h
[21] = test system: NCI-H2228; assay: cells; assay type: cell-based; settings: Homo sapiens, NCI-H2228, 72 h
[22] = test system: NCI-H23; assay: cells; assay type: cell-based; settings: Homo sapiens, NCI-H23, 72 h
[23] = test system: KYSE150; assay: cells; assay type: cell-based; settings: Homo sapiens, KYSE-150; KYSE150, 72 h
[24] = test system: OE33; assay: cells; assay type: cell-based; settings: Homo sapiens, OE33, 72 h
[25] = test system: TE-5; assay: cells; assay type: cell-based; settings: Homo sapiens, TE-5, 72 h
[26] = test system: TE-8; assay: cells; assay type: cell-based; settings: Homo sapiens, TE-8, 72 h
[27] = test system: KYSE450; assay: cells; assay type: cell-based; settings: Homo sapiens, KYSE-450; KYSE450, 72 h
[28] = test system: TE-14; assay: cells; assay type: cell-based; settings: TE-14, 72 h
[29] = test system: SK-MEL-5; assay: cells; assay type: cell-based; settings: Homo sapiens, SK-MEL-5, 72 h
[30] = test system: UACC-62; assay: cells; assay type: cell-based; settings: Homo sapiens, UACC-62, 72 h
[31] = test system: SK-N-SH; assay: cells; assay type: cell-based; settings: Homo sapiens, 72 h
[32] = test system: NCI-H1573; assay: cells; assay type: cell-based; settings: Homo sapiens, NCI-H1573, 72 h; remark: listed apart in the source
[33] = test system: A549; assay: cells; assay type: cell-based; settings: Homo sapiens, A549, 72 h
[34] = test system: NCI-H1975; assay: cells; assay type: cell-based; settings: Homo sapiens, NCI-H1975, 72 h
[35] = test system: NCI-H3255; assay: cells; assay type: cell-based; settings: Homo sapiens, NCI-H3255, 72 h
[36] = test system: KYSE150; assay: cells; assay type: cell-based; settings: Homo sapiens, KYSE-150; KYSE150, 72 h; remark: listed apart in the source
[37] = test system: TE-10; assay: cells; assay type: cell-based; settings: Homo sapiens, TE-10, 72 h
[38] = test system: SK-MEL-30; assay: cells; assay type: cell-based; settings: Homo sapiens, SK-MEL-30, 72 h
[39] = test system: A-375; assay: cells; assay type: cell-based; settings: Homo sapiens, A-375, 72 h
[40] = test system: SK-MEL-2; assay: cells; assay type: cell-based; settings: Homo sapiens, SK-MEL-2, 72 h
[41] = test system: WM-115; assay: cells; assay type: cell-based; settings: Homo sapiens, WM-115, 72 h
[42] = test system: CDK1/cyclin B; settings: cited from earlier work

Work on `CC(=O)c1c(C)c2cnc(Nc3ccc(N4CCNCC4)cn3)nc2n(C2CCCC2)c1=O` [Palbociclib, reference compound] yielded an IC50 [1] of 50 ± 24 µM and an IC50 [2] of 30 ± 18 µM.

For `CN(C)C(=O)c1cc2cnc(Nc3ccc(N4CCNCC4)cn3)nc2n1C1CCCC1` [Ribociclib, 7-cyclopentyl-2-(5-piperazin-1-yl-pyridin-2-ylamino)-7H-pyrrolo[2,3-d]pyrimidine-6-carboxylic acid dimethylamide], the maximum tolerated dosage [3] was 250 mg/kg, the “area under the concentration-time curve” value [4] was ~12,500 ng/mL × h and the maximum serum concentration [4] was ~2700 ng/mL. For the same compound, the T/C [5] was -12, the T/C [6] was 92 and the T/C [7] was 102. It also gave a T/C [8] of 64, a T/C [9] of 10 and a T/C [10] of 52. For the same compound, the T/C ([11]; 150 mg/kg qd) was 36, the T/C ([11]; 250 mg/kg qd) was 19 and the T/C [12] was 11. For the same compound, the T/C [13] was 32, the IC50 [14] was 0.28 µM and the IC50 [15] was > 10 µM. For the same compound, the IC50 [16] was 2.49 µM, the IC50 [17] was 0.28 µM and the IC50 [18] was 0.61 µM. For the same compound, the IC50 [19] was 0.87 µM, the IC50 [20] was 4.74 µM and the IC50 [21] was > 10 µM. For the same compound, the IC50 [22] was > 10 µM, the IC50 [23] was 0.55 µM and the IC50 [24] was 0.63 µM. The IC50 [25] was 2.39 µM, the IC50 [26] was 2.44 µM and the IC50 [27] was > 10 µM. The IC50 [28] was > 10 µM, the IC50 [29] was 2.09 µM and the IC50 [30] was 9.7 µM. For the same compound, the IC50 [31] was 9 µM, the IC50 [32] was > 10 µM and the IC50 [33] was > 10 µM. For the same compound, the IC50 [34] was > 10 µM, the IC50 [35] was > 10 µM and the IC50 [36] was 6.7 µM. The IC50 [37] was > 10 µM, the IC50 [38] was > 10 µM and the IC50 [39] was > 10 µM. The IC50 [40] was > 10 µM, the IC50 [41] was > 10 µM and the “activity against CDK1/cyclin B” value [42] was “far less active”.
